In patent publication US12344879B2, “Transgenic bacteria with expanded amino acid usage and nucleic acid molecules for use in the same” (BOARD OF REGENTS, THE UNIVERSITY OF TEXAS SYSTEM, priority 2015, dated 2025):

Test system: Pseudomonas aeruginosa azurin position 112
Assay: Selenocysteine incorporation into azurin C112X by intact mass spectrometry
Parameters: species or system E. coli RTΔA.2
Conditions: peak areas of the mass spectrum
Description: RTΔA.2 transformants containing pAz-C112X-AU and pRSF-eSelAK were cultured as described previously with the exception that 20 μM Na2SeO3 was added for the 24 hour incubation. Cells were harvested by centrifugation and the periplasmic fraction isolated. Briefly, cell pellets were resuspended in 50 mL of 100 mM Tris and 0.75 M sucrose at pH 7.5. Following addition of lysozyme to 1 mg·mL^−1 and protease inhibitor cocktail cells were gently agitated for 20 min at 4° C. 50 mL of 1 mM EDTA was added and samples incubated again for 20 minutes. EDTA was neutralized by addition of 3.5 mL 0.5M MgCl2 during a further 20 min incubation. Spheroblasts were removed by centrifugation at 35000×g for 30 min, the periplasmic fraction passed through a 0.2 µm filter and mixed with imidazole stock solution to a final concentration of 20 mM. Seleno-azurin was recovered by IMAC using Ni-NTA resin and gravity flow columns. Eluate was concentrated and dialyzed against 50 mM NH4Ac pH 6.5 prior to the isolation of seleno-azurin by size exclusion FPLC. […]
Intact protein samples were analyzed using methods described previously (Ellefson et al., 2014). […] UVPD mass spectra were also deconvoluted using Xtract and then analyzed using ProsightPC 3.0. […] Incorporation efficiencies were calculated by dividing the area of the modified protein peak by the summed areas of the unmodified protein peak and the modified protein peak. […]

In the case of “tRNA^SecUx: Evolved E. coli tRNA^Sec variant with the G7-C66:U49-G65:C50-U64 antideterminant sequence and CUA anticodon”, the “selenocysteine incorporation efficiency in azurin” value was “greater than 76%”.
